Columns and labels:
[1] = system: ORYSAT (Rice, Tebonnet); test: Postemergence herbicidal evaluation; format: in vivo, Oryza sativa, (L.) Tebonnet; conditions: postemergence
In short: (§1)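 Visual 0-9 injury score (stand, vigor, malformation, size, chlorosis, appearance vs untreated) taken four to five weeks post-spray, averaged across repeat tests. Test plants about two weeks old; foliar spray of acetone/water (1:1) with 0.5% surfactant delivering ~0.0156-0.500 kg active/ha.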

[2] = system: SAGPY (Arrowhead (Pygmaea)); test: Preemergence weed control under flooded paddy conditions; format: in vivo, Sagittaria pygmaea; conditions: rated 3-4 weeks after treatment
In short: (§2)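 Flooded-pot preemergence screen with silt loam and seeds in the upper 0.5 cm. Dose about 0.0313 to 0.500 kg/ha, delivered into flood water; visual 0-9 score after 3 to 4 weeks.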

[3] = system: ZEAMX (Corn, Field); test: Preemergence herbicidal evaluation; format: in vivo, Zea mays; conditions: preemergence, rated 4-5 weeks after treatment, 0-9 scale
In short: (§3)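 In this greenhouse assay, monocot and dicot seeds are planted in soil and treated prior to emergence with an aqueous acetone spray (about 0.0156-0.500 kg/ha). Plants are assessed visually against control on a 0-9 scale after 4-5 weeks.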

[4] = system: CYPIR (Rice Flatsedge); test: Preemergence weed control under flooded paddy conditions; format: in vivo, Cyperus iria; conditions: rated 3-4 weeks after treatment
In short: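 Silt loam, seeds in top 0.5 cm; flood held 1.5-3 cm; test cpd as acetone/water 50/50 into flood water, ~0.0313-0.500 kg/ha a.i.; greenhouse 3-4 wk; visual 0-9 score vs control.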

[5] = system: CASOB (Sicklepod); test: Postemergence herbicidal evaluation; format: in vivo, Cassia obtusifolia; conditions: postemergence
In short: as §1

[6] = system: MOOVA (Monochoria); test: Preemergence weed control under flooded paddy conditions; format: in vivo, Monochoria vaginalis; conditions: rated 3-4 weeks after treatment
In short: as §2

[7] = system: GALAP (Galium); test: Preemergence herbicidal evaluation; format: in vivo, Galium aparine; conditions: preemergence, rated 4-5 weeks after treatment, 0-9 scale
In short: as §3

[8] = system: TRZAWR (Wheat, Winter, cv Riband); test: Preemergence herbicidal evaluation; format: in vivo, Triticum aestivum; conditions: preemergence, rated 4-5 weeks after treatment, 0-9 scale
In short: as §3

[9] = system: CYPSE (Flatsedge); test: Postemergence weed control under flooded paddy conditions; format: in vivo, Cyperus serotinus; conditions: postemergence weeds, rated 3 to 4 weeks after treatment
In short: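 Weeds 3 to 5 cm tall and rice seedlings at the 1.5 to 2.5 leaf stage were flooded, with water held 1.5 to 3 cm above the soil. Compounds in 50/50 v/v aqueous/acetone went into the flood water at about 0.0313 to 0.500 kg/ha. Visual 0-9 ratings versus control were made 3 to 4 weeks later.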

[10] = system: ORYSAT (Rice, Tebonnet); test: Preemergence herbicidal evaluation; format: in vivo, Oryza sativa, (L.) Tebonnet; conditions: preemergence, rated 4-5 weeks after treatment, 0-9 scale
In short: as §3

[11] = system: SETVI (Foxtail, Green); test: Preemergence herbicidal evaluation; format: in vivo, Setaria viridis; conditions: preemergence, rated 4-5 weeks after treatment, 0-9 scale
In short: as §3

[12] = system: GLXMAW (Soybean, Williams); test: Preemergence herbicidal evaluation; format: in vivo, Glycine max, (L.) Merr. cv Williams; conditions: preemergence, rated 4-5 weeks after treatment, 0-9 scale
In short: as §3

[13] = system: ECHCG (Barnyardgrass); test: Postemergence herbicidal evaluation; format: in vivo, Echinochloa crus-galli; conditions: postemergence
In short: as §1

[14] = system: CHEAL (Lambsquarters, Common); test: Postemergence herbicidal evaluation; format: in vivo, Chenopodium album; conditions: postemergence
In short: as §1

C=CCN1C(=O)C(CC(=O)OC(C)C(=O)OCC)SC1=Nc1cc(-n2c(=O)ccn(C)c2=O)c(F)cc1Cl [Compound 94, 3-Allyl-2-{{2-chloro-5-[3,6-dihydro-3-methyl-2,6-dioxo-1(2H)-pyrimidinyl]-4-fluorophenyl}imino}-4-oxo-5-thiazolidineacetic acid, ester with ethyl lactate, (R,S)-]
ORYSAT herbicidal rating ([1]; rate 0.0158 kg/ha): 2.0
ORYSAT herbicidal rating ([1]; rate 0.0315 kg/ha): 4.5
ORYSAT herbicidal rating ([1]; rate 0.0630 kg/ha): 5.0
SAGPY herbicidal effect rating ([2]; 0.0313 kg/ha): 0.0
SAGPY herbicidal effect rating ([2]; 0.0625 kg/ha): 0.0
SAGPY herbicidal effect rating ([2]; 0.1250 kg/ha): 5.0
SAGPY herbicidal effect rating ([2]; 0.2500 kg/ha): 9.0
ZEAMX rating ([3]; 0.0156 kg/ha): 0.0
ZEAMX rating ([3]; 0.0313 kg/ha): 0.0
ZEAMX rating ([3]; 0.0625 kg/ha): 0.0
ZEAMX rating ([3]; 0.1250 kg/ha): 0.0
ZEAMX rating ([3]; 0.2500 kg/ha): 6.0
CYPIR herbicidal effect rating ([4]; 0.0313 kg/ha): 0.0
CYPIR herbicidal effect rating ([4]; 0.0625 kg/ha): 3.0
CYPIR herbicidal effect rating ([4]; 0.1250 kg/ha): 4.0
CYPIR herbicidal effect rating ([4]; 0.2500 kg/ha): 4.0
CASOB herbicidal rating ([5]; rate 0.0158 kg/ha): 0.0
CASOB herbicidal rating ([5]; rate 0.0315 kg/ha): 3.0
CASOB herbicidal rating ([5]; rate 0.0630 kg/ha): 9.0
MOOVA herbicidal effect rating ([6]; 0.0313 kg/ha): 9.0
MOOVA herbicidal effect rating ([6]; 0.0625 kg/ha): 9.0
MOOVA herbicidal effect rating ([6]; 0.1250 kg/ha): 9.0
MOOVA herbicidal effect rating ([6]; 0.2500 kg/ha): 9.0
GALAP rating ([7]; 0.0156 kg/ha): 0.0
GALAP rating ([7]; 0.0313 kg/ha): 0.0
GALAP rating ([7]; 0.0625 kg/ha): 0.0
GALAP rating ([7]; 0.1250 kg/ha): 3.0
GALAP rating ([7]; 0.2500 kg/ha): 9.0
TRZAWR rating ([8]; 0.0156 kg/ha): 0.0
TRZAWR rating ([8]; 0.0313 kg/ha): 0.0
TRZAWR rating ([8]; 0.0625 kg/ha): 0.0
TRZAWR rating ([8]; 0.1250 kg/ha): 0.0
TRZAWR rating ([8]; 0.2500 kg/ha): 0.0
Herbicidal rating CYPSE ([9]; Rate 0.1250 kg/ha): 6.0
Herbicidal rating CYPSE ([9]; Rate 0.2500 kg/ha): 9.0
ORYSAT rating ([10]; 0.0156 kg/ha): 0.0
ORYSAT rating ([10]; 0.0313 kg/ha): 0.0
ORYSAT rating ([10]; 0.0625 kg/ha): 0.0
ORYSAT rating ([10]; 0.1250 kg/ha): 0.0
ORYSAT rating ([10]; 0.2500 kg/ha): 3.0
SETVI rating ([11]; 0.0156 kg/ha): 0.0
SETVI rating ([11]; 0.0313 kg/ha): 0.0
SETVI rating ([11]; 0.0625 kg/ha): 0.0
SETVI rating ([11]; 0.1250 kg/ha): 4.0
SETVI rating ([11]; 0.2500 kg/ha): 9.0
GLXMAW rating ([12]; 0.0156 kg/ha): 0.0
GLXMAW rating ([12]; 0.0313 kg/ha): 0.0
GLXMAW rating ([12]; 0.0625 kg/ha): 0.0
GLXMAW rating ([12]; 0.1250 kg/ha): 0.0
GLXMAW rating ([12]; 0.2500 kg/ha): 4.0
ECHCG herbicidal rating ([13]; rate 0.0158 kg/ha): 1.0
ECHCG herbicidal rating ([13]; rate 0.0315 kg/ha): 7.0
ECHCG herbicidal rating ([13]; rate 0.0630 kg/ha): 9.0
CHEAL herbicidal rating ([14]; rate 0.0158 kg/ha): 9.0
CHEAL herbicidal rating ([14]; rate 0.0315 kg/ha): 9.0
CHEAL herbicidal rating ([14]; rate 0.0630 kg/ha): 9.0

Source: US20020137929A1, “1 - (3-heterocyclylphenyl) isothiourea, -isourea, -guanidine and -amidine herbicidal agents” (Intellectual Property Department, BASF Aktiengesellschaft, priority 1998, published 2002)
